Test results published in US20240083839A1, “COMPOSITIONS AND METHODS FOR TREATING NEURODEGENERATIVE DISEASES AND DISORDERS” (The Regents of the University of California, priority 2020, published 2024).
Where a name gives a salt, the structure may show the parent alone.

Test system: SirT1 levels in N2a-E4 cells
Experiment: SirT1 levels by AlphaLISA in ApoE4-transfected N2a cells
Type: cell-based, murine
Description: Prompted by the emerging importance of the associations between ApoE4 and the expression/protein levels of SirT1, high-throughput screening (HTS) of the UCLA compound library was performed using AlphaLISA to detect SirT1 levels in murine neuroblastoma cells stably transfected with ApoE4 (E4-N2a) to identify SirT1 enhancers. […] In the in vivo study, mice were treated orally at 40 mkd (20 mg/kg BID) for 56 days and underwent assessment of cognition in the Novel Object Recognition (NOR) testing paradigm. […] The performance of A03-treated E4-AD mice (FIG. 5A) improved to level of non-transgenic vehicle-treated mice.

Row | SMILES | SirT1 SOμM | SirT1 SμM
1 | C[C@H](NC(=O)OC(C)(C)C)C(=O)N[C@H]1CCC[C@H]1c1ccc(Cl)cc1 (mixture of isomers) [MP-95, tert-butyl-((S)-1-(((±)-cis-2-(4-chlorophenyl)cyclopentyl)amino)-1-oxopropan-2-yl)carbamate] | a, a (a <250%) | a, a (a <250%)
2 | C[C@H](N)C(=O)N[C@H]1CCCCNC1=O.Cl (racemic) [MP-103, (S)-2-amino-N—((S)-2-oxoazepan-3-yl)propanamide hydrochloride] | a, a (a <250%) | a, a (a <250%)
3 | C[C@H](NC(=O)OC(C)(C)C)C(=O)O[C@H]1CCC[C@@H]1c1ccc(Cl)cc1 (single isomer, unassigned) [MP-87] | a, a (a <250%) | a, a (a <250%)
4 | C[C@H](NC(=O)OC(C)(C)C)C(=O)O[C@H]1CCC[C@@H]1c1ccc(Cl)cc1 (single isomer, unassigned) [MP-88] | a, a (a <250%) | a, a (a <250%)
5 | C[C@H](N)C(=O)O[C@@H]1CCC[C@H]1c1ccc(Cl)cc1.Cl (single isomer, unassigned) [MP-90] | a, a (a <250%) | a, a (a <250%)
6 | C[C@H](NC(=O)OC(C)(C)C)C(=O)O[C@H]1CCC[C@H]1c1ccc(Cl)cc1 (single isomer, unassigned) [MP-91] | a, a (a <250%) | a, a (a <250%)
7 | C[C@H](NC(=O)OC(C)(C)C)C(=O)O[C@H]1CCC[C@H]1c1ccc(Cl)cc1 (single isomer, unassigned) [MP-92] | a, a (a <250%) | a, a (a <250%)
8 | C[C@H](N)C(=O)O[C@@H]1CCC[C@@H]1c1ccc(Cl)cc1.Cl (single isomer, unassigned) [MP-93] | C (C = 100% increase versus control) | A (A >20%)
9 | C[C@H](N)C(=O)O[C@H]1CCC[C@H]1c1ccc(Cl)cc1.Cl (single isomer, unassigned) [MP-94] | A (A >20%) | a (a <250%)
10 | C[C@H](NC(=O)OC(C)(C)C)C(=O)N[C@@H]1CCC[C@@H]1c1ccc(Cl)cc1 (single isomer, unassigned) [MP-96] | a, a (a <250%) | a, a (a <250%)
11 | C[C@H](NC(=O)OC(C)(C)C)C(=O)N(C)[C@H]1CCC(c2ccc(Cl)c(Cl)c2)c2ccccc21 (stereo in doubt) [MP-80, tert-butyl ((S)-1-(((1S,4R)-4-(3,4-dichlorophenyl)-1,2,3,4-tetrahydronaphthalen-1-yl)(methyl)amino)-1-oxopropan-2-yl)carbamate] | a, a (a <250%) | a, a (a <250%)
12 | C[C@H](N)C(=O)N(C)[C@H]1CCC(c2ccc(Cl)c(Cl)c2)c2ccccc21.Cl (stereo in doubt) [MP-81, (S)-2-amino-N-((1S,4R)-4-(3,4-dichlorophenyl)-1,2,3,4-tetrahydronaphthalen-1-yl)-N-methylpropanamide hydrochloride] | B, B (B >50%) | B, B (B >50%)
13 | O=C1NCc2ccccc2C[C@@H]1N[C@@H](c1ccccc1)[C@H](O)c1ccccc1 (stereo in doubt) [MP-102, 4(R)-(1R,2S)-1,2-diphenyl-2-hydroxyethylamino-2,3,4,5-tetrahydro-1H-2-benzazepin-3-one] | a, a (a <250%) | a, a (a <250%)
14 | C[C@H](N)C(=O)Nc1cccc2ccccc12 [MP-54, (S)-2-amino-N-(naphthalen-1-yl)propanamide] | C (C = 100% increase versus control) | A (A >20%)
15 | C[C@H](Nc1ccccc1-c1ccccc1)C(N)=O [MP-60] | B (B >50%) | A (A >20%)
16 | N[C@H]1Cc2ccccc2CNC1=O [MP-71, (S)-4-amino-4,5-dihydro-1H-benzo[c]azepin-3(2H)-one hydrochloride] | C (C = 100% increase versus control) | B (B >50%)
17 | C[C@H](NC(=O)OC(C)(C)C)C(=O)OC(C)(C)Cc1ccc(C(F)(F)F)cc1 [MP-75, 2-methyl-1-(4-(trifluoromethyl)phenyl)propan-2-yl 2-((tert-butoxycarbonyl)amino)propanoate] | a, a (a <250%) | a, a (a <250%)
18 | C[C@H](N)C(=O)NC(C)(C)Cc1ccc(F)cc1.Cl [MP-83, (S)-2-amino-N-(1-(4-fluorophenyl)-2-methylpropan-2-yl)propanamide hydrochloride] | A (A >20%) | a (a <250%)
19 | C[C@H](N)C(=O)NC1CCc2ccccc2NC1=O (stereo partly drawn) [MP-84, (2S)-2-amino-N-(2-oxo-2,3,4,5-tetrahydro-1H-benzo[b]azepin-3-yl)propanamide hydrochloride] | A (A >20%) | a (a <250%)
20 | C[C@H](NC(=O)OC(C)(C)C)C(=O)N[C@H]1CCC[C@@H]1c1ccc(Cl)cc1 [MP-85, tert-butyl ((S)-1-(((1S,2R)-2-(4-chlorophenyl)cyclopentyl)amino)-1-oxopropan-2-yl)carbamate] | a, a (a <250%) | a, a (a <250%)
21 | C[C@H](N)C(=O)N[C@H]1CCC[C@@H]1c1ccc(Cl)cc1.Cl [MP-86, (S)-2-amino-N-((1S,2R)-2-(4-chlorophenyl)cyclopentyl)propanamide] | B (B >50%) | A (A >20%)
22 | C[C@H](N)C(=O)O[C@@H]1CCC[C@H]1c1ccc(Cl)cc1.Cl [MP-89, (S)-(1R,2S)-2-(4-chlorophenyl)cyclopentyl 2-aminopropanoate hydrochloride] | A (A >20%) | a (a <250%)
23 | C[C@H](N)C(=O)NC(C)(C)Cc1ccncc1.Cl [MP-100, (S)-2-amino-N-(2-methyl-1-(pyridin-4-yl)propan-2-yl)propanamide hydrochloride] | A, A (A >20%) | A, A (A >20%)
24 | C[C@H](N)C(=O)NC(C)(C)c1ccc(Cl)cc1.Cl [MP-101, (S)-2-amino-N-(2-(4-chlorophenyl)propan-2-yl)propanamide hydrochloride] | B (B >50%) | a (a <250%)
25 | C[C@H](N)C(=O)N[C@H]1Cc2ccccc2CN(C)C1=O.Cl [MP-104, (S)-2-amino-N—((S)-2-methyl-3-oxo-2,3,4,5-tetrahydro-1H-benzo[c]azepin-4-yl)propanamide hydrochloride] | A (A >20%) | a (a <250%)
26 | C[C@H](N)C(=O)N[C@H]1Cc2ccccc2CNC1=O.Cl [MP-105, (S)-2-amino-N—((S)-3-oxo-2,3,4,5-tetrahydro-1H-benzo[c]azepin-4-yl)propanamide hydrochloride] | a, a (a <250%) | a, a (a <250%)
27 | C[C@H](N)C(=O)NC(C)(Cc1cc(F)cc(F)c1)Cc1cc(F)cc(F)c1 [MP-106, (S)-2-amino-N-(1,3-bis(3,5-difluorophenyl)-2-methylpropan-2-yl)propanamide hydrochloride] | a, a (a <250%) | a, a (a <250%)
28 | N[C@@H](CO)C(=O)NCCc1ccc(Cl)cc1 [MP-107] | A, A (A >20%) | A, A (A >20%)
29 | CN1Cc2ccccc2C[C@H](N)C1=O [MP-108] | A, A (A >20%) | A, A (A >20%)
